Tests used:
MATE1 = target: T1, MATE1 (Homo sapiens, UniProt Q96FL8); experiment: Uptake assay in HEK-MATE1 vs HEK-VC cells (pH 8.0); conditions: for Uptake in HEK-MATE1 cells compared to HEK-VC cells: 10 μM substrate; for Uptake in HEK-MATE1 cells compared to HEK-VC cells (in words) / Effect of cimetidine on uptake in HEK-MATE1 cells: 10 and 100 μM substrate; for Uptake in HEK-MATE1 cells compared to HEK-VC cells (in words): pH 8.0; for Effect of cimetidine on uptake in HEK-MATE1 cells: cimetidine 50 μM; for In Vitro MATE1 (substrate class): summary of in vitro uptake/transport results
T1 sequence (Q96FL8 1-570): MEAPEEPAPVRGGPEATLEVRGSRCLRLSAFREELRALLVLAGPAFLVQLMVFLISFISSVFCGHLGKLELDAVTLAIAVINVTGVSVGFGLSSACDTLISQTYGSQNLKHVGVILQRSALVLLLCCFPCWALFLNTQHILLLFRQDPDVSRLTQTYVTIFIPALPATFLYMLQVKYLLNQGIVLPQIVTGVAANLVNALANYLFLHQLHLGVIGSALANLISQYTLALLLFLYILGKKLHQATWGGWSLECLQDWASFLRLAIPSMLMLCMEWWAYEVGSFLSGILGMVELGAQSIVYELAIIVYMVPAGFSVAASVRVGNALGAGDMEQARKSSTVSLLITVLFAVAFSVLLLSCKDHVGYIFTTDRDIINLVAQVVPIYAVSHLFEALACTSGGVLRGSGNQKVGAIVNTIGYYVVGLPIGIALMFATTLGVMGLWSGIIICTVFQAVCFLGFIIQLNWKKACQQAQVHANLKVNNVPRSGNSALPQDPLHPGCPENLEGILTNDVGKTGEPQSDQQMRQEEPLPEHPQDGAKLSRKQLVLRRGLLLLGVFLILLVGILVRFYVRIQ
Protocol: (§1) Transport experiments were performed 48 hours after seeding.
The intracellular background of all 5 compounds in HEK cells at the beginning of the uptake experiments was investigated 48 hours after seeding without incubation with transport buffer (ie, 0 minutes). […] Then, cells were lysed with ice-cold 80% MeOH containing the aforementioned recovery standards. In addition, the impact of a 5-minute incubation period with transport buffer without added substance was investigated.

human OATP1B3 = target: T2, human OATP1B3 (Homo sapiens, UniProt Q9NPD5); experiment: Uptake assay in HEK-OATP1B3 vs HEK-VC cells; type: in vitro ADME
T2 construct: expressed in transfected cells; host or cells: HEK293 (HEK-OATP1B3)
T2 sequence (Q9NPD5 1-702): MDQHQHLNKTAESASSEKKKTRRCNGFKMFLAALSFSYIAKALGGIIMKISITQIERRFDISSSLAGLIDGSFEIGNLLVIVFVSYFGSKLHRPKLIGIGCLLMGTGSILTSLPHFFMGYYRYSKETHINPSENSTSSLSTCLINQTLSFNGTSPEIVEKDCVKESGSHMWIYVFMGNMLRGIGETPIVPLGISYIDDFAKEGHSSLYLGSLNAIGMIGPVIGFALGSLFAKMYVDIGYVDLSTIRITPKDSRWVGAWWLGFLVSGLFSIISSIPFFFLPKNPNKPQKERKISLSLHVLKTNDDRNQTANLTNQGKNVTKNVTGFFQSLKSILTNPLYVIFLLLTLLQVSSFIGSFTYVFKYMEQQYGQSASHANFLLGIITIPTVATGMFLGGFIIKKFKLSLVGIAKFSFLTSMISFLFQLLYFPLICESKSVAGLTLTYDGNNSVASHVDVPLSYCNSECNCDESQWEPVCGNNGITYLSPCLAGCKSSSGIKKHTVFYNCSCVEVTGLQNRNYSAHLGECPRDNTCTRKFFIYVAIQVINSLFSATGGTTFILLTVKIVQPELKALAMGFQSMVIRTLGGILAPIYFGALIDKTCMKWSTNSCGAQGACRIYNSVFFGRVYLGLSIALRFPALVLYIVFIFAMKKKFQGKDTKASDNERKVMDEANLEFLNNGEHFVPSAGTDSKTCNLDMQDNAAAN
Protocol: as §1

[1] = cited from earlier work
human OAT3 = target: T3, human OAT3 (Homo sapiens, UniProt Q8TCC7); experiment: Uptake assay in HEK-OAT3 vs HEK-VC cells; conditions: for In Vitro OAT3 (substrate class): HEK cells
T3 sequence (Q8TCC7 1-542): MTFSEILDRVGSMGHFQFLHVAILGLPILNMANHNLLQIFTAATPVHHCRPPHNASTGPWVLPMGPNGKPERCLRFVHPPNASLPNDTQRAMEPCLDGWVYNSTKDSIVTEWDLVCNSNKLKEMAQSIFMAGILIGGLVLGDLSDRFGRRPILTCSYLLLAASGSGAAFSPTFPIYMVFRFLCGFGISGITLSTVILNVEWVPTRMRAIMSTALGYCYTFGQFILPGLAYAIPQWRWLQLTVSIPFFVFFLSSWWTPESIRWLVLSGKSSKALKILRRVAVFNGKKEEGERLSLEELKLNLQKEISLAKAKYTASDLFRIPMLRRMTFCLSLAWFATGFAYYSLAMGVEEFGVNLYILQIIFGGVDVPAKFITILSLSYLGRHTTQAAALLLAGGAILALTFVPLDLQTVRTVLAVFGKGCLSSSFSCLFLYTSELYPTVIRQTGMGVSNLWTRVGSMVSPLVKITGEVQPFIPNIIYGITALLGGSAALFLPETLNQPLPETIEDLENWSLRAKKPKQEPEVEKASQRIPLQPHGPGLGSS
Protocol: Using both plasmids, stably transfected HEK cells overexpressing human OAT1 or OAT3 were established as described.[24] HEK cell clones with the highest expression of the SLC22A6 or the SLC22A8 mRNA were selected by quantitative reverse-transcription polymerase chain reaction and functionally characterized by standardized uptake assays using PAH (30 μM) or E3S (1 μM) as prototypic substrates for OAT1 (HEK-OAT1) or OAT3 (HEK-OAT3), respectively, as described below.
Uptake assays into HEK cells stably overexpressing transport proteins and their respective VC were performed as previously described with minor modifications.[19] In brief, cells were seeded in poly-D-lysine–coated (0.1 mg/mL) 12-well plates with a density of 7 × 10^5 cells per well. Twenty-four hours after seeding, cells were induced with 10 mM sodium butyrate to enhance protein expression. Transport experiments were performed 48 hours after seeding. Cells were washed once with transport buffer at 37 °C. Afterward, cells were incubated with transport buffer containing (putative) substrates at the desired concentration at 37 °C for 5 minutes. Inhibition of OCT2/MATE1-mediated transport was investigated by adding 50 μM of cimetidine to the above-mentioned transport buffer containing putative substrates. A mixture of unlabeled and [^3H]-labeled substrate was used for control experiments. The buffer for the transport experiments contained 142 mM NaCl, 5 mM KCl, 1 mM K2HPO4, 1.2 mM MgSO4, 1.5 mM CaCl2, 5 mM glucose, and 12.5 mM HEPES. The pH value was set to 7.3, except for HEK-MATE1 cells and their respective VC, in which pH was set to 8.0.
At the end of the incubation period, cells were put on ice, the transport buffer was removed, and cells were rinsed thrice with ice-cold 0.9% NaCl in water. Then, cells were lysed with 700 μL of an ice-cold mixture of MeOH and water (80:20) containing the recovery standards [^2H5]-tryptophan (1 μg/mL) and [^2H3]-N8-acetylspermidine (0.1 μg/mL). Subsequently, lysates were analyzed with liquid chromatography coupled to tandem mass spectrometry (LC-MS).
Data are presented in percentage of respective controls (which were set to 100%) or in pmol × mg protein^–1 × min^–1 for concentration-dependent transport as mean ± SEM. All results were normalized to the mean protein concentrations of the cell lysates in the respective control experiments.

[2] = 5 minutes, pH 8.0, HEK-VC set to 100%

Row | Uptake in HEK-MATE1 cells compared to HEK-VC cells (MATE1; [2]) | Uptake in HEK-MATE1 cells compared to HEK-VC cells (in words) (MATE1; 5 minutes) | Effect of cimetidine on uptake in HEK-MATE1 cells (MATE1; 5 minutes) | In Vitro MATE1 (substrate class) (MATE1) | Uptake ratio in HEK-OAT3 cells compared to HEK-VC cells (human OAT3; 10 μM substrate, 5 minutes) | Uptake ratio for OAT3 (HEK-OAT3 vs HEK-VC) (human OAT3; 5 minutes) | Uptake ratio in HEK-MATE1 cells compared to HEK-VC cells (MATE1; 100 μM substrate, 5 minutes, pH 8.0, HEK-VC set to 100%) | Uptake ratio in HEK-OAT3 cells compared to HEK-VC cells (human OAT3; 100 μM substrate, 5 minutes) | Intracellular background in HEK-MATE1 cells compared to HEK-VC cells (MATE1; 0 minutes and 5 minutes without added substance) | Compound | In Vitro OATP1B3 (substrate class) (human OATP1B3) | Renal clearance ([1]; healthy volunteers, after oral administration of 400 mg tyramine) | In Vitro OAT3 (substrate class) (human OAT3) | Mean urinary excretion ([1]; healthy individuals) | Urinary excretion ([1]; healthy subjects)
1 | 545% | significantly higher | significantly reduced | ++ | 230% | above 2 fold |  |  |  | NCCc1ccc(O)cc1 [Tyramine, tyramine] | - | 260 mL/min | 0 (significant uptake in HEK cells, but less than 300% of respective control cells or significant reduction of transcellular transport in Caco-2 cells, but reduction not below 50% of respective control without valspodar) |  | 
2 | 2469% | significantly higher | significantly reduced | ++ |  |  | 1461% | 186% |  | NCCc1c[nH]c2ccc(O)cc12 [Serotonin, serotonin] | - |  | 0 (significant uptake in HEK cells, but less than 300% of respective control cells or significant reduction of transcellular transport in Caco-2 cells, but reduction not below 50% of respective control without valspodar) |  | 0.21 ± 0.08 nmol/mL/mg creatinine
3 |  | significantly lower |  | + |  |  |  |  | lower | C[N+](C)(C)CCCCC(=O)[O-] [5-Amino valeric acid betaine, 5-amino valeric acid betaine] | 0 (significant uptake in HEK cells, but less than 300% of respective control cells or significant reduction of transcellular transport in Caco-2 cells, but reduction not below 50% of respective control without valspodar) |  | - |  | 

Row | Compound | Uptake in HEK-MATE1 cells compared to HEK-VC cells (MATE1; [2]) | Uptake in HEK-MATE1 cells compared to HEK-VC cells (in words) (MATE1; 5 minutes) | Effect of cimetidine on uptake in HEK-MATE1 cells (MATE1; 5 minutes) | In Vitro MATE1 (substrate class) (MATE1) | Uptake ratio in HEK-OAT3 cells compared to HEK-VC cells (human OAT3; 10 μM substrate, 5 minutes) | Uptake ratio for OAT3 (HEK-OAT3 vs HEK-VC) (human OAT3; 5 minutes) | Uptake ratio in HEK-MATE1 cells compared to HEK-VC cells (MATE1; 100 μM substrate, 5 minutes, pH 8.0, HEK-VC set to 100%) | Uptake ratio in HEK-OAT3 cells compared to HEK-VC cells (human OAT3; 100 μM substrate, 5 minutes) | Intracellular background in HEK-MATE1 cells compared to HEK-VC cells (MATE1; 0 minutes and 5 minutes without added substance) | In Vitro OATP1B3 (substrate class) (human OATP1B3) | Renal clearance ([1]; healthy volunteers, after oral administration of 400 mg tyramine) | In Vitro OAT3 (substrate class) (human OAT3) | Mean urinary excretion ([1]; healthy individuals) | Urinary excretion ([1]; healthy subjects)
4 | Cn1cnc(CCN)c1 [1-Methylhistamine, 1-methylhistamine] | 778% | significantly higher | significantly reduced | ++ |  |  |  |  |  | - |  | - | around 120 μg/g creatinine | 

— article PMC12799524, “Putative new biomarkers for renal transporter-mediated drug-drug interactions: Characterization as substrates of organic cation transporter 2, multidrug and toxin extrusion protein 1, and other important drug transporters” (Drug Metabolism and Disposition, 2025)
